Patent US20260224521A1, “BIOMOLECULE FOR TREATMENT OF CORNEAL PATHOLOGIES” (Board of Supervisors of Louisiana State University and …, priority 2019, published 2026)

Experiments:
[1] = mouse model of tibia bone fracture (96); cited from earlier work
[2] = test system: mouse cornea; settings: topical eye drops, 3× daily for 96 hours; 2005 (76); cited from earlier work
[3] = Incorporation of DHA into PC and PE after topical DHA to corneas with damaged stromal nerves; type: in vivo; settings: 1 h, injured mouse corneas
Experimental: Proportion of PC and PE containing oleic acid (18:1) in the sn-1 and DHA in the sn-2 position. PE was more enriched in the DHA than PC. […] Corneal lipid profiles were analyzed by mass spectrometry-based lipidomic analysis.

[4] = test system: rabbit cornea; settings: cited from earlier work
[5] = test system: injured corneas; settings: NPD1 added to injured corneas (27); cited from earlier work
[6] = test system: corneal nerves; settings: daily i.p. injections of 1 ng/g body weight for 8 weeks; 2017 (79); cited from earlier work
[7] = test system: mouse cornea; settings: subconjunctival injection every 48 hours, 14 days; 2009 (77); cited from earlier work
[8] = test system: trigeminal ganglion (TG) gene expression; assay: Trigeminal ganglion RNA sequencing after corneal injury and treatment; type: in vivo, mouse; settings: RNA-seq, 12 days after corneal injury and topical treatment; vs vehicle
Experimental: Because corneal sensory nerves originate in TG neurons, we wanted to validate whether corneal injury could be sensed in the TG and t, in turn, would elicit a gene expression response. Thus, TG were harvested 12 days after injury and treatment with RvD6si or RvD6 or vehicle treatment used as control (FIG. 4) and then RNA-seq analysis was performed. […] The box plots depict two activated genes by RvD6si in this class: C9orf72 and Gpm6a (FIG. 6). We also detected specific genes related to neuropeptides and ion channel receptors in the cornea that are stimulated by the addition of PEDF+DHA (19, 21, 24) (FIG. 6D). The RNA-seq established that RvD6 or RvD6si reduced gene expression of two major neuropeptides, tachykinin precursor 1 (Tac1) that encodes Substance P (SP) and calcitonin-related polypeptide beta (Calcb). It is important to note that these neuropeptides, especially Calcb, are major pain-induced mediators in migraine and other primary headaches (30).
TG corresponding to the injury eye side (n=5) were harvested and kept in RNAlater solution (Thermo Fisher Scientific) until homogenized on ice using a Dounce homogenizer. Total mRNA was extracted using an RNeasy mini kit (Qiagen, Germantown, MD, USA) as described by the manufacturer. Purity and concentration of RNA were determined with a NanoDrop ND-1000 spectrophotometer (Thermo Fisher Scientific), and the samples were stored at −80° C. until used. RNA sequencing was performed using the adapted Smart-seq2 protocol (56). Briefly, one ng of total RNA was reverse transcribed with the Oligo-dT30VN and template-switching oligo (TSO) primers. The total cDNAs were amplified using ISPCR primer, and the library was made using the Nextera XT DNA library preparation kit (Illumina, San Diego, CA, USA). The libraries were pooled using the same molarity and sequenced using the NextSeq 500/550 High Output Kit v2 (75 cycles, Illumina). After demultiplexing, RNA-seq data were aligned to the GENCODE GRCm38 mouse primary genome assembly (Release M22, gencodegenes.org/mouse/) using the RSubread package v1.34.6 for R v3.6.1 (57). The outputted BAM files for sequencing data alignment were counted using featureCounts function (Subread v1.6.5 in Ubuntu LTS 16.4 operating system) (58). Next, the raw count data were subjected to differential gene expression analysis using DESeq2 package for R (59). The adjusted p-values were regarded as the false discover rate (FDR).

[9] = test system: mouse cornea; assay: Corneal sensitivity measurement (Belmonte non-contact aesthesiometer); type: in vivo; settings: day 9 after injury and treatment; vs vehicle
Experimental: Corneal sensitivity was evaluated at days 3, 6, 9 and 12 after corneal injury and treatment (FIG. 4). A new methodology to measure the sensation in mouse cornea was introduced using the Belmonte non-contact aesthesiometer. […] It is important to note that this range of normal corneal sensitivity is critical to evaluate corneal sensation since the Belmonte non-contact aesthesiometer working flow rate is from 20 to 200 ml/min. The range of normal corneal sensitivity from […] in the mouse was regarded as successful recovery after injury and treatment, and it was used to normalize the measurements.
(§1) Mice were anesthetized with a mix of ketamine (200 mg/kg) and xylazine (10 mg/kg) injected intraperitoneally, and one drop of proparacaine hydrochloride solution (0.5%) was applied to the right eye subjected to injury. As previously described (19, 29), the center of the cornea was demarcated with a 2 mm trephine, and the epithelium and the anterior stroma were gently removed under a surgical microscope using a corneal rust ring remover (Algerbrush II; Alger Equipment Co., Lago Vista, TX, USA). One drop of 0.3% of tobramycin ophthalmic solution (Henry Schein, Melville, NY, USA) was applied to the eye to prevent postoperative infection. The same investigator (J.H.) performed all surgeries. Afterward, 10 μl of PEDF (50 ng/ml) plus DHA (50 nM) or DHA-derived lipid mediators were applied topically, as explained in each experimental design.
The non-contact corneal aesthesiometer has been described as a more reliable method than the standard Cochet-Bonnet aesthesiometer to determine the corneal sensation threshold (54). Therefore, for corneal sensation measurement, the Belmonte non-contact corneal aesthesiometer (55) was used with some modification. Briefly, one researcher held the mouse and kept the air output needle at a distance of 3 mm from the cornea. Another researcher controlled the air flow rate. The measurements started at an air flow rate of 80 ml per minute and then increased gradually by ten units until the mouse started blinking. When the mouse blinked, the air flow rate was recorded as the final corneal sensitivity index.

[10] = test system: corneal nerves; assay: Corneal nerve analysis (PGP9.5 and SP whole-mount nerve density); type: in vivo, mouse
Description: PEDF+DHA stimulates corneal nerve regeneration in injury animal models (20-25). It was important to confirm the biological activity of RvD6si as a lipid mediator underlying the action of PEDF+DHA. To validate this, mice were injured and treated (as described in FIG. 4). Isolated corneas were stained with PGP 9.5, a pan-neuronal marker, and with SP neuropeptide antibodies. The density of non-injured corneal nerves positive to PGP 9.5 and SP, respectively, was used to normalize the values (FIG. 5). Substance P is a main neuropeptide in mammalian corneas (26-28).
as §1
Twelve days after injury and treatment, mice were euthanized, and the eyes enucleated and fixed with Zamboni's fixative (American Master Tech Scientific, Lodi, CA, USA) for 45 min at room temperature. The corneas were then excised and fixed for an additional 15 min, followed by 3 washes with PBS. To block nonspecific binding, corneas were incubated with 10% normal goat serum plus 0.5% Triton X-100 in PBS for 1 h at room temperature. Afterward, corneas were incubated with the primary antibodies, rabbit monoclonal anti-PGP9.5 (1:500), (ab108986; Abcam, Cambridge, MA, USA), and rat monoclonal anti-substance-P (SP; 1:100) (sc-21715; Santa Cruz Biotechnology, Dallas, TX, USA) for 24 h at room temperature with constant shaking. After being washed with PBS, the corneas were incubated with the corresponding secondary antibodies goat anti-rabbit Alexa-Fluor 488 (1:1000) and goat anti-rat Alexa-Fluor 488 (1:1000) (Thermo Fisher Scientific, Waltham, MA, USA) for 24 h at 4° C. Four radial cuts were performed on each cornea that was flatly mounted on a slide with the endothelium side up and examined with a fluorescent microscope (Deconvolution microscope DP80; Olympus, Tokyo, Japan). The images were merged together to build the entire view of the corneal nerve network. The corneal nerve density was measured using Photoshop CC 2014 (Adobe) as previously described (26, 29).

[11] = test system: mouse cornea; assay: Corneal wound healing 20 h after injury (methylene blue stained wounded area); type: in vivo; settings: 20 h after injury and topical treatment; compared to vehicle
Experimental: Studies have shown that PEDF+DHA promotes corneal wound healing in rabbit (20, 21), and in normal and diabetic mice (24, 25) after experimental surgery. We validated the ability of RvD6s (either RvD6 or RvD6si) in stimulating corneal wound healing. The right mouse eyes were injured, and the animals were divided into four groups: vehicle, PEDF+DHA, RvD6, and RvD6si (FIG. 4).
as §1
Mice were euthanized 20 h after injury and treatment, and corneas were stained with 0.5% methylene blue for 20 sec and then washed with PBS for 2 min. Photographs were taken with a dissecting microscope (SMZ 1500; Nikon, Tokyo, Japan) through an attached digital camera (DXM 1200; Nikon). The images corresponding to the wounded area were quantified using Photoshop CC 2014 software (Adobe, San Jose, CA, USA).

[12] = test system: retinal pigment epithelial (RPE) cells; settings: RPE cells (16); cited from earlier work

With `CC/C=C\C[C@H](O)/C=C\C=C\C/C=C/C=C/C=C/C(O)[C@@H](O)CCC(=O)O` (stereo in doubt) [RvD4, Resolvin D4] as the molecule, how does the pain [1] read?
Its pain is “no effect”.

Which “PMNs in the cornea” value [2] does the source give for `CC/C=C\C[C@H](O)/C=C/C=C\C/C=C\C/C=C\C/C=C\CCC(=O)O` [17S-HDHA] here?
The value was “Increased”.

And the “formation of the proinflammatory chemokine KC” value [2]?
Its value is “Decreased”.

And the rate of re-epithelialization [2]?
The rate of re-epithelialization was “Increased the rate of re-epithelialization”.

Which “incorporation of the fatty acid in PC and PE molecular species containing 18:1-DHA” value [3] does the source give for `CC/C=C\C/C=C\C/C=C\C/C=C\C/C=C\C/C=C\CCC(=O)O` [DHA, docosahexaenoic acid] here?
Its value is “rapid incorporation”.

Which neutrophil infiltration ([4]; after 2 and 4 days of treatment, 2013 (41)) does the source give for `CC/C=C\C[C@H](O)\C=C/C=C/C=C/[C@H](O)C/C=C\C/C=C\CCC(=O)O` [NPD1, neuroprotectin D1] here?
The neutrophil infiltration was “Decreased neutrophil infiltration after 2 and 4”.

What about the “subepithelial corneal nerves and tear secretion” value ([4]; topical eye drops 33 ng/eye, 3× daily for 6 weeks, 2013 (41)) of the same molecule?
Its value is “Increased subepithelial corneal nerves and tear”.

And the “PMNs in the cornea” value [2]?
Its value is “Increased”.

And the “formation of the proinflammatory chemokine KC” value [2]?
The value was “Decreased”.

What about the rate of re-epithelialization [2] of the same molecule?
The rate of re-epithelialization was “Increased the rate of re-epithelialization”.

What about the “gene expression and protein levels of NGF, BDNF and Sema7A” value [5] of the same molecule?
Its value is “increase”.

With `CC/C=C\C[C@H](O)/C=C/C=C\C=C\C=C\[C@@H](O)[C@@H](O)C/C=C\CCC(=O)O` [RvD1, Resolvin D1] as the molecule, how does the pain [1] read?
Its pain is “pain attenuation”.

And the “diabetes-induced corneal nerve lost” value [6]?
The value was “Reduced the diabetes-induced comeal nerve”.

What about the “mRNA expression levels of TNF-α, IL-1α, IL-1β, VEGF-A, VEGF-C, and VEGFR2” value [7] of the same molecule?
The value was “macrophages and reduced mRNA expression”.

What about the “suture-induced or IL-1β-induced hemangiogenesis (HA)” value [7] of the same molecule?
The value was “Suppressed suture-induced or IL-1β-induced”.

With `CC/C=C\C[C@H](O)/C=C/C=C\C=C\C=C\[C@@H](O)[C@@H](O)C/C=C\CCC(=O)OC` [RvD1-methyl ester] as the molecule, how does the “diabetes-induced corneal nerve lost” value [6] read?
The value was “Reduced the diabetes-induced comeal nerve”.

With `CC/C=C\C[C@H](O)[C@H](O)/C=C/C=C/C=C\C=C\[C@@H](O)C/C=C\CCC(=O)OC` [RvD2-methyl ester] as the molecule, how does the “diabetes-induced corneal nerve lost” value [6] read?
Its value is “Reduced the diabetes-induced comeal nerve”.

For `CC/C=C\C[C@H](O)/C=C/C=C\C[C@@H](O)/C=C/C=C/C=C\[C@@H](O)CCC(=O)O` [RvD3, Resolvin D3], which pain [1] is on record?
The pain was “no effect”.

With `CC/C=C\C[C@H](O)/C=C/C=C\C/C=C\C=C\[C@@H](O)C/C=C\CCC(=O)O` [RvD5, Resolvin D5] as the molecule, how does the pain [1] read?
The pain was “pain attenuation”.

For `CC/C=C\C[C@H](O)/C=C/C=C\C/C=C\C/C=C\C=C\[C@@H](O)CCC(=O)O` [RvD6, 4S,17S-dihydroxy-5E,7Z,10Z,13Z,15E,19Z-docosahexaenoic acid, reference compound], which “Calcb gene expression in TG” value [8] is on record?
The value was “reduced”.

And the “Tac1 gene expression in TG” value [8]?
The value was “reduced”.

And the corneal sensitivity [9]?
Its corneal sensitivity is “higher”.

And the “total corneal nerve density, differences between RvD6si, RvD6, and PEDF+DHA” value ([10]; 12 days after injury and treatment)?
Its value is “no significant differences”.

What about the “total corneal nerve density (PGP 9.5)” value ([10]; 12 days after injury and treatment, % of the normal (uninjured) cornea) of the same molecule?
The value was 59.7±11.2%.

And the “density of SP-positive nerves” value ([10]; 12 days after injury, compared to the vehicle-treated group)?
The value was “higher”.

And the “corneal wound healing (wound closure)” value [11]?
The value was “faster”.

B1: PEDF: pigment epithelium-derived factor, a broad-acting neurotrophic and neuroprotective factor (protein, UniProt P36955 20-418, looked up)
Pigment epithelium-derived …: QNPASPPEEGSPDPDSTGALVEEEDPFFKVPVNKLAAAVSNFGYDLYRVRSSTSPTTNVLLSPLSVATALSALSLGAEQRTESIIHRALYYDLISSPDIHGTYKELLDTVTAPQKNLKSASRIVFEKKLRIKSSFVAPLEKSYGTRPRVLTGNPRLDLQEINNWVQAQMKGKLARSTKEIPDEISILLLGVAHFKGQWVTKFDSRKTSLEDFYLDEERTVRVPMMSDPKAVLRYGLDSDLSCKIAQLPLTGSMSIIFFLPLKVTQNLTLIEESLTSEFIHDIDRELKTVQAVLTVPKLKLSYEGEVTKSLQEMKLQSLFDSPDFSKITGKPIKLTQVEHRAGFEWNEDGAGTTPSPGLQPAHLTFPLDYHLNQPFIFVLRDTDTGALLFIGKILDPRGP
Which “potency in stimulating NPD1 synthesis relative to NGF” value [12] does the source give for B1 here?
The value was 10 times.

And the cornea nerve regeneration ([4]; treatment with PEDF or DHA alone (19))?
The cornea nerve regeneration was “no increase”.
